For series [1], the system named is BMMC. As to the kind of experiment: Inhibition of osteoclastogenesis in mouse BMMC at 2 uM by TRAP staining based assay. The class given is functional.
The test system of series [2] is BMMC. Kind of series: Inhibition of osteoclastogenesis in mouse BMMC at 1 uM by TRAP staining based assay. The class given is functional.
The test system of series [3] is BMMC. Kind of series: Inhibition of osteoclastogenesis in mouse BMMC at 0.5 uM by TRAP staining based assay. The class given is functional.
Series [4] has as its system BMMC. As to the kind of experiment: Inhibition of osteoclastogenesis in mouse BMMC by TRAP staining based assay. The class given is functional, cell-based.
The nature of series [5]: Partition coefficient, logP of compound. The series is classed as physicochemical. The settings on record: octanol/water.
The next series concerns Calvarial osteoblast. Kind of series: Effect on cell viability in osteoblast cells (unknown origin) upto 4 uM incubated for 48 hrs by MTT assay. The series is classed as toxicity, cell-based. (Tetrazolium dyes change colour on reduction, which living cells bring about.)
Series [6] has as its system BMMC. Kind of series: Inhibition of RANKL mediated […] differentiation in mouse BMMC at 0.25 to 2 uM incubated for 4 days by TRAP staining based assay. The settings on record: dose 0.25-2 µM, time 4.0 day. The class given is functional, cell-based.
Series [7] deals with BMMC. Kind of series: Inhibition of RANKL mediated […] differentiation in mouse BMMC incubated for 4 days by TRAP staining based assay. The settings on record: dose 0.25-2 µM, time 4.0 day. The series is classed as functional, cell-based.
The nature of series [8]: Effect on mouse BMMCs viability at below 10 uM incubated for 48 hrs by MTT assay. The class given is toxicity, cell-based. The settings on record: bmmc.
For series [9], the system named is BMMC. Kind of series: Inhibition of osteoclast differentiation in mouse BMMCs assessed as reduction in Cathepsin K mRNA expression at 1.25 uM incubated for 3 days by qRT-PCR analysis. The settings on record: time 3.0 day. The class given is functional, cell-based. (In general: Real-time PCR tracks product formation cycle by cycle.)
In series [10] the test system is BMMC. Kind of series: Inhibition of osteoclast differentiation in mouse BMMCs assessed as reduction in NFATc1 protein expression at 1.25 uM incubated for 3 days by immunoblotting analysis. The series is classed as functional, cell-based. The settings on record: time 3.0 day. On the technique in general: Immunoblotting shows a protein as a band on a membrane.
For series [11], the system named is BMMC. As to the kind of experiment: Inhibition of osteoclast differentiation in mouse BMMCs assessed as reduction in […] mRNA expression at 1.25 uM incubated for 3 days by qRT-PCR analysis. The class given is functional, cell-based. The settings on record: time 3.0 day.
In series [12] the test system is BMMC. As to the kind of experiment: Inhibition of osteoclast differentiation in mouse BMMCs assessed as reduction in ACP5 mRNA expression at 1.25 uM incubated for 3 days by qRT-PCR analysis. The series is classed as functional, cell-based. The settings on record: time 3.0 day.
Series [13] concerns BMMC. Kind of series: Inhibition of osteoclastogenesis in mouse BMMC assessed as reduction in fusion of mononuclear osteoclast cells to form large multinucleated osteoclast cells at 0.25 to 2 uM. The series is classed as functional, cell-based. The settings on record: dose 0.25-2 µM.
Series [14] has as its system BMMC. As to the kind of experiment: Inhibition of osteoclast differentiation in mouse BMMCs assessed as reduction in Cathepsin K protein expression at 1.25 uM incubated for 3 days by immunoblotting analysis. The series is classed as functional, cell-based. The settings on record: time 3.0 day.
Series [15] concerns BMMC. As to the kind of experiment: Inhibition of osteoclast differentiation in mouse BMMCs assessed as reduction in Mmp9 mRNA expression at 1.25 uM incubated for 3 days by qRT-PCR analysis. The class given is functional, cell-based. The settings on record: time 3.0 day.
For series [16], the system named is BMMC. As to the kind of experiment: Inhibition of osteoclast differentiation in mouse BMMCs assessed as reduction in c-fos protein expression at 1.25 uM incubated for 3 days by immunoblotting analysis. The class given is functional, cell-based. The settings on record: time 3.0 day.
Series [17] has as its system BMMC. Kind of series: Inhibition of osteoclast differentiation in mouse BMMCs assessed as reduction in Nfatc1 mRNA expression at 1.25 uM incubated for 3 days by qRT-PCR analysis. The class given is functional, cell-based. The settings on record: time 3.0 day.
A further series concerns Mus musculus. Kind of series: Inhibition of osteoclast differentiation in ovariectomized osteoporosis mouse model at 10 mg/kg, ip administered for 4 weeks. The class given is functional, organism-based.
Series [18] relates to BMMC. As to the kind of experiment: Inhibition RANKL-induced bone resorption in mouse BMMC at 0.625 to 2.5 uM incubated for 4 days by immunofluorescence assay. The class given is functional, cell-based. The settings on record: dose 0.625-2.5 µM, time 4.0 day.
Series [19] concerns BMMC. As to the kind of experiment: Inhibition RANKL-induced F-actin ring formation in mouse BMMC at 0.625 to 2.5 uM incubated for 4 days by immunofluorescence assay. The series is classed as functional, cell-based. The settings on record: dose 0.625-2.5 µM, time 4.0 day.
The test system of series [20] is BMMC. Kind of series: Inhibition of osteoclast differentiation in mouse BMMCs assessed as reduction in Dc-stamp mRNA expression at 1.25 uM incubated for 3 days by qRT-PCR analysis. The series is classed as functional, cell-based. The settings on record: time 3.0 day.

Activity calls are given as the source filed them. The calls are words filed in the database; no cut-off is given here.

Data on 9 compounds can be found in ChEMBL document CHEMBL5584263, “Novel inhibitor N-cyclopropyl-4-((4-((4-(trifluoromethyl)phenyl)sulfonyl)piperazin-1-yl)methyl)benzamide attenuates RANKL-mediated osteoclast differentiation in vitro” (Bioorg Med Chem Lett, 2024).

For `CC(=O)c1ccc(S(=O)(=O)N2CCN(Cc3ccc(C(=O)NC4CC4)cc3)CC2)cc1`, in the series with BMMC [1], the inhibition at 2 µM turned out to be 14.7%. Besides, in the series with BMMC [2], the inhibition at 1 µM is 16.9%. Also, the inhibition at 0.5 µM in the series with BMMC [3] amounted to 17.6%. The compound also gave an IC50 in the series on BMMC [4] of 7.24 µM. This compound also returned a logP in series [5] of 2.3.
For `CC(C)(C)c1ccc(S(=O)(=O)N2CCN(Cc3ccc(C(=O)NC4CC4)cc3)CC2)cc1`, in that order: 100%, 74.1%, 23.6%, 0.55 µM and 4.1.
For `CCCCCCCCS(=O)(=O)N1CCN(Cc2ccc(C(=O)NC3CC3)cc2)CC1`, in that order: 84%, 33.2%, 23.9%, 1.14 µM and 5.7.
Consider `O=C(NC1CC1)c1ccc(CN2CCN(S(=O)(=O)c3cccc(Cl)c3)CC2)cc1`, for which the inhibition at 2 µM in the series on BMMC [1] is 71.7%. For the same compound, in the series on BMMC [2], the inhibition at 1 µM amounted to 25.2%. For the same compound, the inhibition at 0.5 µM in the series on BMMC [3] was -49.2%. The compound further gave an IC50 in the series with BMMC [4] of 3.03 µM. For the same compound, in series [5], the logP is 3.3.
Taken in the same sequence, the figures for `O=C(NC1CC1)c1ccc(CN2CCN(S(=O)(=O)c3ccc(-c4ccccc4)cc3)CC2)cc1` were 100%, 64.6%, 9.56%, 0.75 µM and 4.1.
On to `O=C(NC1CC1)c1ccc(CN2CCN(S(=O)(=O)c3ccc(C(F)(F)F)cc3)CC2)cc1`, for which, in the series on BMMC [1], the inhibition at 2 µM is 96.8%. For the same compound, the inhibition at 1 µM with BMMC [2] was 72%. Moreover, the Activity entry (in the series with Calvarial osteoblast; in series [8]) was “Non-Toxic” each time. The inhibition result in the series with BMMC [6], in the series on BMMC [9], in the series with BMMC [10], in the series on BMMC [11], in the series on BMMC [12] and with BMMC [13] was “Active” throughout. Further, the inhibition entry with BMMC [14], with BMMC [15], with BMMC [16], in the series on BMMC [17], with BMMC [18] and in the series with BMMC [19] was “Active” each time. Moreover, the inhibition result with BMMC [20] is “Active”. Moreover, the inhibition result in the series on BMMC [7] is “Dose-Dependent Effect”. In the series on BMMC [3], the inhibition at 0.5 µM was found to be 17.7%. For the same compound, the inhibition result in the series with Mus musculus is “inactive”. For the same compound, in the series on BMMC [4], inhibition was half-maximal at 0.64 µM (IC50). Besides, in [5], the lipophilicity (logP) is 3.5.
Regarding `COc1ccc(S(=O)(=O)N2CCN(Cc3ccc(C(=O)NC4CC4)cc3)CC2)cc1`, the inhibition at 2 µM with BMMC [1] came to 10.6%. Moreover, the inhibition at 1 µM with BMMC [2] is -13.8%. Besides, the inhibition at 0.5 µM with BMMC [3] was -9.9%. Also, in the series with BMMC [4], 221 µM corresponded to half-maximal inhibition (IC50). The logP in [5] worked out at 2.6.
With `COc1cccc(S(=O)(=O)N2CCN(Cc3ccc(C(=O)NC4CC4)cc3)CC2)c1`, the inhibition at 2 µM in the series on BMMC [1] is -5.21%. Also, the inhibition at 1 µM in the series with BMMC [2] was -20.9%. Also, in the series on BMMC [3], the inhibition at 0.5 µM was -22.8%. In series [5], the logP was 2.7.
`O=C(NC1CC1)c1ccc(CN2CCN(S(=O)(=O)c3ccc([N+](=O)[O-])cc3)CC2)cc1`: in the series with BMMC [1], the inhibition at 2 µM was determined as 46.7%. Moreover, in the series with BMMC [2], the inhibition at 1 µM is 25.5%. In addition, the inhibition at 0.5 µM in the series with BMMC [3] is 48.9%. Also, in the series on BMMC [4], the IC50 came out at 1.69 µM. This compound came in with a logP in series [5] of 2.6.

As a reminder, the inhibition is the change of the read-out against control, counted positive when it falls. What is called IC50 is the concentration that inhibits the measured activity by half. The low end stands for higher potency, the high end for lower potency. The term logP denotes a log measure of how a compound divides between an organic and an aqueous phase. Low readings indicate a more hydrophilic compound, high ones a more lipophilic compound.
